Experimental data published in patent publication US12384769B2, “Heteroaryl-substituted aminoalkyl azole compounds as pesticides” (Elanco Animal Health GmbH, priority 2019, dated 2025).

How the values were obtained:
Format in all cases: in vivo
[1] = system: Ctenocephalides felis; experiment: Ctenocephalides felis oral test (CTECFE); conditions: 48 h, 100 ppm in cattle blood, after 2 days
Description: Ctenocephalides felis—Oral Test (CTECFE)
(§1) Solvent: dimethyl sulfoxide
To produce a suitable preparation of active compound, 10 mg of active compound are dissolved in 0.5 ml solvent, and the concentrate is diluted with cattle blood to the desired concentration.
Approximately 20 adult unfed cat fleas (Ctenocephalides felis) are placed in flea chambers. The blood chamber, sealed with parafilm on the bottom, are filled with cattle blood supplied with compound solution and placed on the gauze covered top of the flea chamber, so that the fleas are able to suck the blood. The blood chamber is heated to 37° C. whereas the flea chamber is kept at room temperature.
After 2 days mortality in % is determined. 100% means all the fleas have been killed; 0% means none of the fleas have been killed.

[2] = system: Diabrotica balteata; experiment: Diabrotica balteata spray test; conditions: 168 h, wheat seeds, after 7 days, read-out: activity (efficacy, seedlings grown); for pest or weed control at 160 µg/disc, 500 g/ha: 500 g/ha (=160 μg/well)
Description: Diabrotica balteata—Spray Test
Solvent: 78.0 parts by weight of acetone • • 1.5 parts by weight of dimethylformamide
(§2) Emulsifier: alkylarylpolyglycol ether
(§3) To produce a suitable preparation of active compound, 1 part by weight of active compound is mixed with the stated amount of solvent, and the concentrate is diluted with water, containing an emulsifier concentration of 1000 ppm, to the desired concentration. Further test concentrations are prepared by dilution with emulsifier containing water.
Soaked wheat seeds (Triticum aestivum) are placed in a multiple well plate filled with agar and some water and are incubated for 1 day to germinate (5 seeds per well). The germinated wheat seeds are sprayed with a test solution containing the desired concentration of the active ingredient. Afterwards each unit is infected with 10-20 larvae of the banded cucumber beetle (Diabrotica balteata).
After 7 days efficacy in % is determined. 100% means all the seedlings have grown up like in the untreated, uninfected control; 0% means none of the seedlings have grown.

[3] = system: Boophilus microplus; experiment: Boophilus microplus injection test (BOOPMI Injection); conditions: Rhipicephalus microplus, 168 h, injection into adult engorged female ticks, egg deposition after 7 days, read-out: activity (efficacy, infertile eggs); for pest or weed control at 0.004 mg: 4 μg/animal; for pest or weed control at 0.02 mg: 20 μg/animal
Description: Boophilus microplus—Injection Test (BOOPMI Injection)
as §1
To produce a suitable preparation of active compound, 10 mg of active compound are dissolved in 0.5 mL solvent, and the concentrate is diluted with solvent to the desired concentration.
Five adult engorged female ticks (Boophilus microplus) are injected with 1 μL compound solution into the abdomen. The ticks are transferred into replica plates and incubated in a climate chamber.
After 7 days egg deposition of fertile eggs is monitored. Eggs where fertility is not visible are stored in a climate chamber till hatching after about 42 days. An efficacy of 100% means all eggs are infertile; 0% means all eggs are fertile.

[4] = system: Spodoptera frugiperda; experiment: Spodoptera frugiperda spray test; conditions: in Zea mays, 168 h, read-out: activity (mortality)
Description: Spodoptera frugiperda—Spray Test
Solvent: 78.0 parts by weight acetone • 1.5 parts by weight dimethylformamide
as §2
as §3, with “solvents” for “solvent,”, “and” for “and the concentrate”
Maize (Zea mays) leaf sections are sprayed with a preparation of the active ingredient of the desired concentration. Once dry, the leaf sections are infested with fall armyworm larvae (Spodoptera frugiperda).
After 7 days mortality in % is determined. 100% means all caterpillars have been killed and 0% means none of the caterpillars have been killed.

[5] = system: Rhipicephalus microplus (strain Parkhurst, resistant against synthetic pyrethroids); experiment: Rhipicephalus microplus in-vitro contact test, larval cattle tick (BOOPMI Contact); conditions: 5 μg/cm^2 (=500 g/ha), after 48 hours, read-out: activity (efficacy, larvae dead or moribund)
Description: Rhipicephalus microplus—in-Vitro Contact Tests Larval Cattle Tick (Strain Parkhurst, Resistant Against Synthetic Pyrethroids) (BOOPMI Contact)
9 mg compound is solved in 1 ml acetone and diluted with acetone to the desired concentration. 250 μL of the test solution is filled in 25 ml glass test tubes and homogeneously distributed on the inner walls by rotation and tilting on a shaking device (2 h at 30 rpm). With a compound concentration of 900 ppm, an inner surface of 44.7 cm^2 and a homogeneous distribution, a dose of 5 μg/cm^2 is achieved.
After the solvent has evaporated, each test tube is filled with 20-50 cattle tick larvae (Rhipicephalus microplus), closed with a perforated lid and incubated in a horizontal position at 85% relative humidity and 27° C. in an incubator. After 48 hours efficacy is determined. The larvae are patted on the ground of the tubes and negative geotactic behaviour is recorded.
An efficacy of 100% means all larvae are dead or moribund; 0% means no larvae are dead or moribund.

## CC(Nc1nc2cc(C(F)(F)F)cc(Cl)c2o1)c1nc(C(F)(F)F)nn1-c1ncccn1 (racemic) [Example I-048, 7-Chlor-N-{(rac)-1-[1-(pyrimidin-2-yl)-3-(trifluormethyl)-1H-1,2,4-triazol-5-yl]ethyl}-5-(trifluormethyl)-1,3-benzoxazol-2-amin]
[1]
  mortality at 100 ppm: 100%

## C[C@H](Nc1nc2cc(C(F)(F)F)ccc2o1)c1ncnn1-c1ncccn1 [Example I-003]
[2]
  pest or weed control at 160 µg/disc, 500 g/ha: 80%

## C[C@H](Nc1nc2cc(C(F)(F)F)cc(Cl)c2o1)c1ncnn1-c1ccc(Cl)cn1 [Example I-015]
[3]
  pest or weed control at 0.004 mg: 80%
  pest or weed control at 0.02 mg: 100%
[4]
  mortality at 500 g/ha: 100%
[5]
  pest or weed control at 5 µg/cm2: 100%
[2]
  pest or weed control at 160 µg/disc, 500 g/ha: 100%

## C[C@H](Nc1nc2cc(C(F)(F)F)cc(Cl)c2o1)c1ncnn1-c1ccc(C#N)cn1 [Example I-018]
[3]
  pest or weed control at 0.004 mg: 100%
  pest or weed control at 0.02 mg: 100%
[4]
  mortality at 100 g/ha: 100%
  mortality at 500 g/ha: 100%
[5]
  pest or weed control at 5 µg/cm2: 80%
[2]
  pest or weed control at 100 g/ha: 100%
  pest or weed control at 160 µg/disc, 500 g/ha: 100%

## Cc1nc([C@H](C)Nc2nc3cc(C(F)(F)F)cc(Cl)c3o2)n(-c2ccc(C#N)cn2)n1 [Example I-020]
[5]
  pest or weed control at 5 µg/cm2: 100%

## Cc1nc([C@H](C)Nc2nc3cc(C(F)(F)F)cc(C(F)(F)F)c3o2)n(-c2ccc(C#N)cn2)n1 [Example I-021]
[3]
  pest or weed control at 0.004 mg: 100%
  pest or weed control at 0.02 mg: 100%
[5]
  pest or weed control at 5 µg/cm2: 80%
[2]
  pest or weed control at 100 g/ha: 100%
  pest or weed control at 160 µg/disc, 500 g/ha: 100%

## C[C@H](Nc1nc2cc(C(F)(F)F)cc(Cl)c2o1)c1ncnn1-c1ccc(C(F)(F)F)cn1 [Example I-027]
[3]
  pest or weed control at 0.004 mg: 100%
  pest or weed control at 0.02 mg: 100%
[4]
  mortality at 500 g/ha: 100%
[5]
  pest or weed control at 5 µg/cm2: 100%

## Cc1nc([C@H](C)Nc2nc3cc(C(F)(F)F)cc(C(F)(F)F)c3o2)n(-c2ccc(C(F)(F)F)cn2)n1 [Example I-029]
[5]
  pest or weed control at 5 µg/cm2: 100%

## C[C@H](Nc1nc2cc(C(F)(F)F)cc(C(F)(F)F)c2o1)c1ncnn1-c1ccc(C(F)(F)F)cn1 [Example I-030]
[3]
  pest or weed control at 0.004 mg: 80%
  pest or weed control at 0.02 mg: 100%

## C[C@H](Nc1nc2cc(C(F)(F)F)cc(C(F)(F)F)c2o1)c1ncnn1-c1ccc(Cl)cn1 [Example I-032]
[3]
  pest or weed control at 0.02 mg: 100%
[4]
  mortality at 500 g/ha: 100%

## Cc1csc(-n2ncnc2[C@H](C)Nc2nc3cc(C(F)(F)F)cc(Cl)c3o2)n1 [Example I-038, 7-chloro-N-{(1S)-1-[1-(4-methyl-1,3-thiazol-2-yl)-1H-1,2,4-triazol-5-yl]ethyl}-5-(trifluoromethyl)-1,3-benzoxazol-2-amine]
[3]
  pest or weed control at 0.004 mg: 80%

## COc1cnc(-n2ncnc2[C@H](C)Nc2nc3cc(C(F)(F)F)cc(Cl)c3o2)nc1 [Example I-043, 7-Chlor-N-{(1S)-1-[1-(5-methoxypyrimidin-2-yl)-1H-1,2,4-triazol-5-yl]ethyl}-5-(trifluormethyl)-1,3-benzoxazol-2-amin]
[4]
  mortality at 100 g/ha: 100%

## COc1ccnc(-n2ncnc2[C@H](C)Nc2nc3cc(C(F)(F)F)cc(Cl)c3o2)n1 [Example I-051, 7-Chlor-N-{(1S)-1-[1-(4-methoxypyrimidin-2-yl)-1H-1,2,4-triazol-5-yl]ethyl}-5-(trifluormethyl)-1,3-benzoxaozl-2-amin]
[3]
  pest or weed control at 0.02 mg: 100%
[5]
  pest or weed control at 5 µg/cm2: 80%

## C[C@H](Nc1nc2cc(C(F)(F)F)cc(Br)c2o1)c1ncnn1-c1ccc(Cl)cn1 [Example I-054, 7-Brom-N-{(1S)-1-[1-(5-chlorpyridin-2-yl)-1H-1,2,4-triazol-5-yl]ethyl}-5-(trifluormethyl)-1,3-benzoxazol-2-amin]
[3]
  pest or weed control at 0.02 mg: 100%
[4]
  mortality at 500 g/ha: 100%
[5]
  pest or weed control at 5 µg/cm2: 100%

## CC(C)c1cc(Cl)c2oc(N[C@@H](C)c3ncnn3-c3ncccn3)nc2c1 [Example I-063, 7-Chlor-5-isopropyl-N-{(1S)-1-[1-(pyrimidin-2-yl)-1H-1,2,4-triazol-5-yl]ethyl}-1,3-benzoxazol-2-amin]
[3]
  pest or weed control at 0.004 mg: 80%
  pest or weed control at 0.02 mg: 100%
[2]
  pest or weed control at 100 g/ha: 100%
  pest or weed control at 160 µg/disc, 500 g/ha: 80%

## CC(C)c1cc(Cl)c2oc(N[C@@H](C)c3ncnn3-c3cc(C#N)ccn3)nc2c1 [Example I-064, 2-(5-{(1S)-1-[(7-Chlor-5-isopropyl-1,3-benzoxazol-2-yl)amino]ethyl}-1H-1,2,4-triazol-1-yl)isonicotinonitril]
[3]
  pest or weed control at 0.02 mg: 80%
[2]
  pest or weed control at 100 g/ha: 100%
  pest or weed control at 160 µg/disc, 500 g/ha: 100%

## CC(C)c1cc(Cl)c2oc(N[C@@H](C)c3ncnn3-c3ncc(Br)cn3)nc2c1 [Example I-068, N-{(1S)-1-[1-(5-Brompyrimidin-2-yl)-1H-1,2,4-triazol-5-yl]ethyl}-7-chlor-5-isopropyl-1,3-benzoxazol-2-amin]
[3]
  pest or weed control at 0.004 mg: 100%
  pest or weed control at 0.02 mg: 100%
[5]
  pest or weed control at 5 µg/cm2: 80%

## C[C@H](Nc1nc2cc(C(C)(C)C)cc(Cl)c2o1)c1ncnn1-c1ccc(C#N)cn1 [Example I-077, 6-(5-[(1S)-1-[(5-tert-Butyl-7-chlor-1,3-benzoxazol-2-yl)amino]ethyl}-1H-1,2,4-triazol-1-yl)nicotinonitril]
[3]
  pest or weed control at 0.004 mg: 100%
  pest or weed control at 0.02 mg: 100%

## C[C@H](Nc1nc2cc(S(=O)(=O)c3ccccc3)cc(Cl)c2o1)c1ncnn1-c1ncccn1 [Example I-080, 7-Chlor-5-(phenylsulfonyl)-N-{(1S)-1-[1-(pyrimidin-2-yl)-1H-1,2,4-triazol-5-yl]ethyl}-1,3-benzoxazol-2-amin]
[5]
  pest or weed control at 5 µg/cm2: 100%

## Cc1nc([C@H](C)Nc2nc3cc(Cl)cc(C(F)(F)F)c3o2)n(-c2ncccn2)n1 [Example I-089, 5-Chlor-N-{(1S)-1-[3-methyl-1-(pyrimidin-2-yl)-1H-1,2,4-triazol-5-yl]ethyl}-7-(trifluormethyl)-1,3-benzoxazol-2-amin]
[3]
  pest or weed control at 0.004 mg: 100%
  pest or weed control at 0.02 mg: 100%

## COc1nc([C@H](C)Nc2nc3cc(C(F)(F)F)c(Cl)cc3o2)n(-c2ccc(C#N)cn2)n1 [Example I-101, 6-{5-[(1S)-1-{[6-chloro-5-(trifluoromethyl)-1,3-benzoxazol-2-yl]amino}ethyl]-3-methoxy-1H-1,2,4-triazol-1-yl}pyridine-3-carbonitrile]
[2]
  pest or weed control at 100 g/ha: 100%

## CCN(CC)C(=O)c1ccc(-n2ncnc2[C@H](C)Nc2nc3cc(C(F)(F)F)c(Cl)cc3o2)nc1 [Example I-102, 6-{5-[(1S)-1-{[6-chloro-5-(trifluoromethyl)-1,3-benzoxazol-2-yl]amino}ethyl]-1H-1,2,4-triazol-1-yl}-N,N-diethylpyridine-3-carboxamide]
[4]
  mortality at 100 g/ha: 100%
[2]
  pest or weed control at 100 g/ha: 100%

## C[C@H](Nc1nc2cc(C(F)(F)F)c(Cl)cc2o1)c1ncnn1-c1ccc(C(=O)N2CCCC2)cn1 [Example I-103, (6-{5-[(1S)-1-{[6-chloro-5-(trifluroomethyl)-1,3-benzoxazol-2-yl]amino}ethyl]-1H-1,2,4-triazol-1-yl}pyridin-3-yl)(pyrrolidin-1-yl)methanone]
[2]
  pest or weed control at 100 g/ha: 100%
